Measured values published in the NIST ThermoML archive (doi:10.1016/j.jct.2019.06.027).

Legend:
[1] = for surface tension liquid-gas: Maximal bubble pressure; for mass density: 101.33 kPa, Liquid, Vibrating tube method
[2] = refractive index (Na D-line) (dimensionless); settings: 101.33 kPa, Liquid, Standard Abbe refractometry

CCOCCn1cc[n+](C)c1.[Br-] [1-(2-ethoxyethyl)-3-methylimidazolium bromide]
Settings | mass density, [1] [kg/m3] | refractive index, [2] | surface tension liquid-gas, [1] [mN/m]
288.15 K | 1360.32 | 1.5473 | 50.9
293.15 K | 1356.56 | 1.5458 | 50.5
298.15 K | 1352.79 | 1.5441 | 50.2
303.15 K | 1349.05 | 1.5426 | 49.8
308.15 K | 1345.33 | 1.5409 | 49.5
313.15 K | 1341.63 | 1.5391 | 49.2
318.15 K | 1337.99 | 1.5376 | 48.9
323.15 K | 1334.35 | 1.5357 | 48.6
328.15 K | 1330.24 | 1.5341 | 48.3

CCOCCn1cc[n+](C)c1.[Cl-] [1-(2-ethoxyethyl)-3-methylimidazolium chloride]
Settings | mass density, [1] [kg/m3] | refractive index, [2] | surface tension liquid-gas, [1] [mN/m]
288.15 K | 1143.13 | 1.5269 | 47.8
293.15 K | 1139.98 | 1.5255 | 47.3
298.15 K | 1136.83 | 1.524 | 46.9
303.15 K | 1133.69 | 1.5225 | 46.5
308.15 K | 1130.57 | 1.5206 | 46
313.15 K | 1127.45 | 1.5184 | 45.6
318.15 K | 1124.37 | 1.5159 | 45.2
323.15 K | 1121.28 | 1.5142 | 44.8
328.15 K | 1118.21 | 1.5119 | 44.3

COCCn1cc[n+](C)c1.[Cl-] [1-(2-methoxyethyl)-3-methylimidazolium chloride]
Settings | mass density, [1] [kg/m3] | refractive index, [2] | surface tension liquid-gas, [1] [mN/m]
288.15 K | 1168.6 | 1.5201 | 49.6
293.15 K | 1165.46 | 1.5185 | 49.2
298.15 K | 1162.31 | 1.516 | 48.7
303.15 K | 1159.17 | 1.5142 | 48.4
308.15 K | 1156.04 | 1.5121 | 48
313.15 K | 1152.91 | 1.5103 | 47.6
318.15 K | 1149.78 | 1.5083 | 47.1
323.15 K | 1146.63 | 1.5069 | 46.7
328.15 K | 1143.27 | 1.5046 | 46.2
